Measured values reported in patent US4427686A, “Pharmacologically active benzopyranotriazole compounds” (Beecham Group Limited, priority 1980, dated 1984).
Blank lines part the entries; values can stand above or below the molecule they belong to.

Key:
[1] = test system: slow reacting substance of anaphylaxis, SRS-A, on isolated guinea pig ileum; test: SRS-A Antagonism on Guinea Pig Ileum; set-up: species or system guinea pig (Dunkin Hartley male); details: atropine 5×10^-7 M and mepyramine 10^-6 M, sodium salt, read-out: Approximate concentration to give a 50% inhibition of a less than maximal response to SRS-A
Method: (b) antagonise the spasmogenic effects of slow reacting substance of anaphylaxis, SRS-A, on isolated guinea pig ileum.
(§1) The compounds were used in the form of their sodium salts.
(§2) Charles River Sprague Dawley male rats of 250-300 g. and Dunkin Hartley male white guinea pigs of 250-300 g. were used.
The compounds were evaluated as direct antagonists of slow reacting substance of anaphylaxis (SRS-A) by assay using the isolated guinea pig ileum.
SRS-A rat was obtained from the peritoneal cavity of the rat after passive peritoneal anaphylaxis by a method based on that of R. P. Orange, D. J. Stechschulte and K. F. Austen, J. Immunology, 105, 1087 (1970) as described by J. W. Ross, H. Smith and B. A. Spicer 1976, Increased vascular permeability during passive peritoneal anaphylaxis in the rat. Int. Arch. Allergy appl., 51, 226. The sensitising serum containing antibody was produced in rats as described by J. W. Ross et. al., ibid.
2 ml of a 1 in 5 dilution of the sensitising serum was injected by the peritoneal route into recipient rats and after 2 hours 5 ml of Tyrode's solution containing 0.4 mg/ml ovalbumin (Sigma Grade III) and 50 μg/ml heparin was injected by the same route. Five minutes after challenge the rats were stunned and bled and the peritoneal fluids collected into polycarbonate tubes in ice. After centrifugation at 150 g. for five minutes the supernatants were combined, heated in a boiling water bath for five minutes, cooled and stored at -20° C. The combined peritoneal fluids contained SRS-A and were used in the antagonism studies.
The SRS-A assays were carried out on isolated strips of guinea pig ileum in Tyrode's solution containing atropine 5×10^-7 M and mepyramine 10^-6 M as described by W. E. Brocklehurst, J. Physiology, 151, 416 (1960).
The ability of the antagonists was determined by their ability to reduce submaximal responses induced by SRS-A. The antagonists were added to the 4 ml bath in 0.1 ml volumes in aqueous solution half a minute before the addition of SRS-A and were present during induced contraction.

[2] = test system: rat passive peritoneal anaphylaxis; test: Rat Passive Peritoneal Anaphylaxis (PPA); format: in vivo, rat (Charles River Sprague Dawley male); details: Mean ± SEM, 5-7 rats per group, sodium salt
Text: (a) inhibit rat passive peritoneal anaphylaxis; and
as §1, §2
The method has been described previously. (Ross, Janet W., Smith, H. and Spicer, Barbara A. Increased vascular permeability during passive peritoneal anaphylaxis in the rate. Int. Arch. Allergy appl. Immun., 51, 226, 1976).
Rats were sensitised by giving an intraperitoneal injection of 0.5 ml of Bordetella pertussis vaccine (4×10^10 organisms/ml Burroughs Wellcome, London) and a subcutaneous injection of 0.5 ml of an emulsion of 100 mg of ovalbumin (chicken egg albumin, crystallised and lyophilised, grade 3, Sigma, London) in 2 ml of isotonic saline and 3 ml of Freund's incomplete adjuvant (Difco Laboratories, Michigan, USA).
The rats were bled by cardiac puncture, on day 18, the blood was pooled, and the serum separated, stored at -20° C. and thawed only once before use.
Rats were each given an intraperitoneal injection of 2 ml of a 1 in 5 dilution of the rat anti-serum in isotonic saline. Two hours later 0.3 ml of a 5% solution of Pontamine Sky Blue (Raymond A. Lamb, London) in isotonic saline was injected intravenously, followed by an intraperitoneal injection of the test compound in 1 ml of saline; (control rats received 1 ml of saline); followed 30 seconds later by an intraperitoneal injection of 5 ml of Tyrode's solution containing 50 μg/ml heparin and 0.4 mg/ml of ovalbumin. The concentrations of the compounds are quoted as those in the 6 ml of fluid injected intraperitoneally. Exactly five minutes after challenge the rats were stunned and bled and their peritoneal fluids were collected by opening their peritoneal cavities over funnels into polycarbonate tubes in ice. The supernatants were separated from the cellular residue by centrifugation at 150 g. for five minutes and were retained for assay of dye and histamine. Any samples obviously contaminated with blood were not used for estimation of dye. Groups of at least five rats were used for each dose of compound and the treatments were randomised.
Dye was assayed within two hours by measurement of optical density (OD) at 625 nm.
For histamine assay 0.5 ml samples of the supernatants were added to 1 ml volumes of 12% trichloracetic acid and stored at -20° C. The deproteinised samples were assayed using an automated spectrofluorimetric system (Technicon Autoanalyser) by a method similar to that of Evans, D. P., Lewis, J. A. and Thomson, D. S.: (An automated fluorimetric assay for the rapid determination of histamine in biological fluids. Life Sci., 12, 327, 1973).

[3] = test system: release of allergic response mediators; details: background art; cited from earlier work
released SRS-A = details: background art; cited from earlier work

SMILES: CCCc1c(OCC(O)COc2ccc3c(=O)cc(C(=O)O)oc3c2CCC)ccc(C(C)=O)c1O (stereo not shown) [FPL 55712]
inhibition of release of allergic response mediators [3]: able to effect at least some inhibition of release of these allergic response mediators
inhibition of released SRS-A (released SRS-A): inhibit released SRS-A

SMILES: CCCc1c(OCC(O)COc2ccc3c(=O)c4[nH]nnc4oc3c2C)ccc(C(C)=O)c1O (stereo not shown) [Example 2, 6-[3-(4-Acetyl-3-hydroxy-2-n-propylphenoxy)-2-hydroxypropan-1-yloxy]-5-methyl-9-oxo-1H,9H-benzopyrano[2,3-d]-v-triazole]
IC50 [1]: ~32 nM
Dye concentration in peritoneal fluid as % of mean of controls ([2]; 2 × 10^-6 M injected ip): 42 ± 5 % of mean of controls
Histamine concentration in peritoneal fluid as % of mean of controls ([2]; 2 × 10^-6 M injected ip): 14 ± 2 % of mean of controls
Dye concentration in peritoneal fluid as % of mean of controls ([2]; 2 × 10^-7 M injected ip): 61 ± 7 % of mean of controls
Histamine concentration in peritoneal fluid as % of mean of controls ([2]; 2 × 10^-7 M injected ip): 56 ± 1 % of mean of controls

SMILES: CCCc1c(OCCCOc2ccc3c(=O)c4[nH]nnc4oc3c2C)ccc(C(C)=O)c1O [Example 1, 6-[3-(4-Acetyl-3-hydroxy-2-n-propylphenoxy)propan-1-yloxy]-5-methyl-9-oxo-1H,9H-benzopyrano[2,3,d]-v-triazole]
IC50 [1]: ~100 nM
Dye concentration in peritoneal fluid as % of mean of controls ([2]; 2 × 10^-5 M injected ip): 54 ± 7 % of mean of controls
Histamine concentration in peritoneal fluid as % of mean of controls ([2]; 2 × 10^-5 M injected ip): 17 ± 2 % of mean of controls
Dye concentration in peritoneal fluid as % of mean of controls ([2]; 2 × 10^-6 M injected ip): 63 ± 5 % of mean of controls
Histamine concentration in peritoneal fluid as % of mean of controls ([2]; 2 × 10^-6 M injected ip): 18 ± 2 % of mean of controls

Continued, in another order:

IC50 [1]: ~63 nM
SMILES: CCCc1c(OCC(O)COc2ccc3c(=O)c4[nH]nnc4oc3c2)ccc(C(C)=O)c1O (stereo not shown) [Example 3, 6-[3-(4-Acetyl-3-hydroxy-2-n-propylphenoxy)-2-hydroxypropan-1-yloxy]-9-oxo-1H,9H-benzopyrano[2,3-d]-v-triazole]
Dye concentration in peritoneal fluid as % of mean of controls ([2]; 2 × 10^-6 M injected ip): 51 ± 5 % of mean of controls
Histamine concentration in peritoneal fluid as % of mean of controls ([2]; 2 × 10^-6 M injected ip): 16 ± 2 % of mean of controls
Dye concentration in peritoneal fluid as % of mean of controls ([2]; 2 × 10^-7 M injected ip): 74 ± 9 % of mean of controls
Histamine concentration in peritoneal fluid as % of mean of controls ([2]; 2 × 10^-7 M injected ip): 56 ± 5 % of mean of controls

IC50 [1]: ~50 nM
SMILES: CCCc1c(OCCCOc2cccc3oc4nn[nH]c4c(=O)c23)ccc(C(C)=O)c1O [Example 4, 8-[3-(4-Acetyl-3-hydroxy-2-n-propylphenoxy)-propan-1-yloxy]-9-oxo-1H,9H-benzopyrano-[2,3-d]-v-triazole]
Dye concentration in peritoneal fluid as % of mean of controls ([2]; 2 × 10^-5 M injected ip): 92 ± 10 % of mean of controls
Histamine concentration in peritoneal fluid as % of mean of controls ([2]; 2 × 10^-5 M injected ip): 42 ± 6 % of mean of controls
Dye concentration in peritoneal fluid as % of mean of controls ([2]; 2 × 10^-6 M injected ip): 104 ± 20 % of mean of controls
Histamine concentration in peritoneal fluid as % of mean of controls ([2]; 2 × 10^-6 M injected ip): 89 ± 7 % of mean of controls
